Converted amounts (≈) assume the structure as drawn.
What was measured:
HCV = conditions: monotherapy, patients; cited from earlier work
[1] = PK of prodrugs of Compound 1 in rats; type: in vivo; conditions: oral gavage 3 mg/kg, plasma, FIG. 9
Procedure: The prodrugs whose PK parameters are to be determined can be formulated as a solution in 0.5% MC/0.5% Tween 80/99% water and administered orally by gavage to rats at a dose of 3 mg/kg. Rats are weighed the day before the study. Rat plasma is sampled predose and at 15, 30 min, 1, 2, 3, 4, 6, 8, 12 and 24 hrs post dose using Instech automatic blood sampling equipment. Blood is collected in tubes containing K2-EDTA and 110 uL plasma are extracted for analysis. Rats are fed ad lib and standard IACUC and SOP protocols are followed. Plasma samples and dose samples are analyzed using LC/MS/MS for both the prodrug compound and the active metabolite. PK parameters for both analytes for each subject are calculated using the measured dose of prodrug.

[2] = system: hepatitis C virus (HCV) replicon; experiment: HCV replicon cell assay; type: cell-based; conditions: HCV RNA level, 48-hour incubation
Procedure: Cells containing hepatitis C virus (HCV) replicon were maintained in DMEM containing 10% fetal bovine serum (FBS), 0.25 mg per ml of G418, with appropriate supplements (media A).
On day 1, replicon cell monolayer was treated with a trypsin:EDTA mixture, removed, and then media A was diluted into a final concentration of 100,000 cells per ml with 10,000 cells in 100 μl were plated into each well of a 96-well tissue culture plate, and cultured overnight in a tissue culture incubator at 37° C.
On day 2, compounds (in 100% DMSO) were serially diluted into DMEM containing 2% FBS, 0.5% DMSO, with appropriate supplements (media B). The final concentration of DMSO was maintained at 0.5% throughout the dilution series.
Media on the replicon cell monolayer was removed, and then media B containing various concentrations of compounds was added. […]
A Taqman real-time RT-PCR quantification assay was set up with two sets of specific primers and probe. […] Total RNA extractants from treated HCV replicon cells was added to the PCR reactions for quantification of both HCV and BVDV RNA in the same PCR well. […] The level of HCV RNA in each well was calculated according to a standard curve run in the same PCR plate. The percentage of inhibition or decrease of HCV RNA level due to compound treatment was calculated using the DMSO or no compound control as 0% of inhibition. […]

[3] = male, human, in vivo
Procedure: 25 healthy male volunteers were enrolled.
A dose escalation scheme was used that combined dose doubling and modified Fibonacci to be aggressive in the lower dose range and conservative in the higher dose range.
A pharmacokinetics analysis was performed using the statistical moment approach.

For interferon alfa, the “long term remission, fraction of cases” value (HCV) is listed as about 25%.
In the case of C[C@@H](N)C(=O)O[C@H]1CC[C@H](N(c2cc(C#CC(C)(C)C)sc2C(=O)O)C(=O)[C@H]2CC[C@H](C)CC2)CC1 [Compound H], the “in vivo conversion of prodrug” value [1] is reported as “converted into the —OH active metabolite”.
In the case of CCC[C@H](NC(=O)[C@@H]1[C@H]2CCC[C@H]2CN1C(=O)[C@@H](NC(=O)[C@@H](NC(=O)c1cnccn1)C1CCCCC1)C(C)(C)C)C(=O)C(=O)NC1CC1 [VX-950], the IC50 [2] is reported as 0.24 µg/mL (≈ 0.353 µM), the IC90 [2] is reported as 0.476 µg/mL (≈ 0.7 µM) and the “eliminated unchanged in the urine” value [3] is reported as “Less than 2%”.

Reference: US20130034522A1, “THERAPIES FOR TREATING HEPATITIS C VIRUS INFECTION” (priority 2010, published 2013)
